# According to publication PMC8776995 (Frontiers in Chemistry, 2022):
# Where “and” joins values, the source holds several entries; their conditions need not be identical. Equal entries are not always repeated. Where two headings read alike, the source gives them in different places.
# Experiments:
# [1] = test system: CCND1, CCNA2, CCNB1, CDK2, CDK6 RNA in PC-9 cells; test: qPCR assay for cell cycle-related gene analysis; type: cell-based, human; details: for RQ / RQ, CCNA / RQ, CCNB / RQ, CCND1 / RQ, CDK6 / RQ (CDK2): endogenous control b-Actin, reference sample NC; for CDK6 relative mRNA expression (fold of NC): normalised to beta-Actin, relative to NC = 1
# Excerpt: To better understand the mechanisms underlying cell cycle arrest induced by e4 and e12 in NSCLC cells, we assessed the expression levels of a few genes involved in cell cycle regulation, including cyclin D1 (CCND1), cyclin A2 (CCNA2), cyclin B1 (CCNB1), cyclin-dependent kinase 2 (CDK2), and cyclin-dependent kinase 6 (CDK6) in PC-9 by qPCR. […] CCNA2 is known to bind and activate CDK2 and thus promotes the transition through G1/S and G2/M. CCNB1 and CCND1 are essential to mitosis and G1/S transition respectively. While G2/M arrest weas not detected, the changes in these gene expression profiles interpret the G1/S arrests in PC-9 cells treated with e4 and e12. PC-9 cells exposed to the compounds for various periods should be examined further.
# Total RNA of cells was extracted and cDNA was synthesized. The primers for the target products were designed as in Table 3.
# H460 cells = test: CCK-8 antiproliferation assay, H460; details: for Inhibitory efficacy: H460 cells
# [2] = PC-9, 16 h, compared with DMSO control
smiles,measurement,setting,value
"COCCOc1cc2ncnc(Nc3cccc(-c4cn(Cc5cc(Br)cc(Br)c5)nn4)c3)c2cc1OCCOC [e4, [6,7-Bis-(2-methoxy-ethoxy)-quinazolin-4-yl]-{3-[1-(3,5-dibromo-benzyl)-1H-[1,2,3]triazol-4-yl]-phenyl}-amine]",2^ΔΔCт CDK2,"[1]; CDK2, 8uM, Repeat 1-3, relative to NC = 1",1.1688 and 1.551 and 1.159
same,2^ΔΔCт CDK2,"[1]; CDK2, 12uM, Repeat 1-3, relative to NC = 1",0.9257 and 1.095 and 1.173
same,RQ,"[1]; CDK2 mRNA, 4uM",1.028
same,RQ,"[1]; CDK2 mRNA, 8uM",1.159
same,RQ,"[1]; CDK2 mRNA, 12uM",1.173
same,2^ΔΔCт CDK6,"[1]; CDK6, 4uM, Repeat 1-3, relative to NC = 1",0.8111 and 1.387 and 0.8685
same,2^ΔΔCт CDK6,"[1]; CDK6, 12uM, Repeat 1-3, relative to NC = 1",1.051 and 1.348 and 1.109
same,RQ,"[1]; CDK6 mRNA, 4uM",0.8685
same,RQ,"[1]; CDK6 mRNA, 8uM",0.637
same,RQ,"[1]; CDK6 mRNA, 12uM",1.109
same,RNA expression of CCND1,"[1]; PC-9, 12 μM, 16 h",negatively regulated
same,RNA level of CCNA2,[1]; [2],significantly decreased
same,RNA level of CCNB1,[1]; [2],significantly decreased
same,"RQ, CCNA","[1]; qPCR SYBR Green, CCNA mRNA, 4uM",0.8165
same,"RQ, CCNA","[1]; qPCR SYBR Green, CCNA mRNA, 8uM",0.778
same,"RQ, CCNA","[1]; qPCR SYBR Green, CCNA mRNA, 12uM",0.5446
same,"RQ, CCNB","[1]; qPCR SYBR Green, CCNB mRNA, 4uM",1.076
same,"RQ, CCNB","[1]; qPCR SYBR Green, CCNB mRNA, 8uM",1.137
same,"RQ, CCNB","[1]; qPCR SYBR Green, CCNB mRNA, 12uM",0.9859
same,"RQ, CCND1","[1]; qPCR SYBR Green, CCND1 mRNA, 4uM",1.076
same,"RQ, CCND1","[1]; qPCR SYBR Green, CCND1 mRNA, 8uM",0.7718
same,"RQ, CCND1","[1]; qPCR SYBR Green, CCND1 mRNA, 12uM",0.7441
same,"RQ, CDK6","[1]; qPCR SYBR Green, CDK6 mRNA, 4uM",1.387
same,"RQ, CDK6","[1]; qPCR SYBR Green, CDK6 mRNA, 8uM",1.7457
same,"RQ, CDK6","[1]; qPCR SYBR Green, CDK6 mRNA, 12uM",1.348
same,"CDK6 relative mRNA expression (fold of NC, normalised to beta-Actin)","[1]; qPCR, SYBR Green, 8uM",1.746
same,CDK6 relative mRNA expression (fold of NC),"[1]; qPCR, SYBR Green, 8uM",0.9943
same,CDK6 relative mRNA expression (fold of NC),"[1]; qPCR, SYBR Green, 12uM",1.109
same,2^ΔΔCт CDK6,"[1]; recalculated summary 20201020-1, normalized to WT (NC), CDK6, 4uM",1.387
same,2^ΔΔCт CDK6,"[1]; recalculated summary 20201020-1, normalized to WT (NC), CDK6, 8uM",1.746
same,"RQ, CCNA","[1]; target CCNA, 4uM",0.7613
same,"RQ, CCNA","[1]; target CCNA, 8uM",0.7109
same,"RQ, CCNA","[1]; target CCNA, 12uM",0.5857
same,"RQ, CCNB","[1]; target CCNB, 4uM",0.8081
same,"RQ, CCNB","[1]; target CCNB, 8uM",0.7848
same,"RQ, CCNB","[1]; target CCNB, 12uM",0.736
same,"RQ, CCND1","[1]; target CCND1, 4uM",0.8337
same,"RQ, CCND1","[1]; target CCND1, 8uM",0.7172
same,"RQ, CCND1","[1]; target CCND1, 12uM",0.6074
same,RQ (CDK2),"[1]; target CDK2, 8uM",1.1688
same,RQ (CDK2),"[1]; target CDK2, 12uM",0.9257
same,"RQ, CDK6","[1]; target CDK6, 4uM",0.8111
same,"RQ, CDK6","[1]; target CDK6, 8uM",0.824
same,"RQ, CDK6","[1]; target CDK6, 12uM",1.051
same,Inhibitory efficacy,"H460 cells; 1uM, given as fraction, Repeat 1-3",0.09927 and 0.1204
same,Inhibitory efficacy,"H460 cells; 2uM, given as fraction, Repeat 1-3",0.08541 and 0.1118
same,Inhibitory efficacy,"H460 cells; 8uM, given as fraction, Repeat 1-3",0.8422 and 0.8158
same,Inhibitory efficacy,"H460 cells; 16uM, given as fraction, Repeat 1-3",0.9425 and 0.965
same,IC50,"H460 cells; Homo sapiens, NCI-H460, 48 h, read-out: IC50 (μM) H460, CCK-8, 48 h, average ± SD of three independent experiments",< 10 µM
same,inhibition at 1 µM,"H460 cells; Homo sapiens, NCI-H460, read-out: Inhibitory efficacy, H460 cells, 1uM, given as fraction, Repeat 1-3",19.4%
same,inhibition at 2 µM,"H460 cells; Homo sapiens, NCI-H460, read-out: Inhibitory efficacy, H460 cells, 2uM, given as fraction, Repeat 1-3",16.7%
same,inhibition at 8 µM,"H460 cells; Homo sapiens, NCI-H460, read-out: Inhibitory efficacy, H460 cells, 8uM, given as fraction, Repeat 1-3",79.5%
same,inhibition at 16 µM,"H460 cells; Homo sapiens, NCI-H460, read-out: Inhibitory efficacy, H460 cells, 16uM, given as fraction, Repeat 1-3",95%
same,IC50,"H460 cells; read-out: IC50 (μM) H460, CCK-8, 48 h, average ± SD of three independent experiments",5.18 ± 0.78 µM
